Measured values reported in patent publication US20240002438A1, “MELANOCORTIN LIGANDS AND METHODS OF USE THEREOF” (REGENTS OF THE UNIVERSITY OF MINNESOTA, priority 2021, published 2024).
Like-named read-outs stand apart in the source and are kept apart here. Blank lines part the entries; values can stand above or below the compound they belong to. Where a SMILES comes first, the peptide text is derived from it. Primed or numbered codes have the meaning given here. [ ]: non-standard residue; d: D form. dBip = N[C@H](Cc1ccc(-c2ccccc2)cc1)C(=O)O; Oic = O=C(O)[C@@H]1C[C@@H]2CCCC[C@@H]2N1; dPhe(4-I) = N[C@H](Cc1ccc(I)cc1)C(=O)O; 2Nal = N[C@@H](Cc1ccc2ccccc2c1)C(=O)O; d2Nal = N[C@H](Cc1ccc2ccccc2c1)C(=O)O; Nle = CCCC[C@H](N)C(=O)O; Pip′ = not defined here

Columns and labels:
[1] = Solubility in solvents compatible with RP-HPLC
[2] = target: T1, mMC1R (Mus musculus, UniProt Q01727); test: cell-based
T1 sequence (Q01727 whole entry): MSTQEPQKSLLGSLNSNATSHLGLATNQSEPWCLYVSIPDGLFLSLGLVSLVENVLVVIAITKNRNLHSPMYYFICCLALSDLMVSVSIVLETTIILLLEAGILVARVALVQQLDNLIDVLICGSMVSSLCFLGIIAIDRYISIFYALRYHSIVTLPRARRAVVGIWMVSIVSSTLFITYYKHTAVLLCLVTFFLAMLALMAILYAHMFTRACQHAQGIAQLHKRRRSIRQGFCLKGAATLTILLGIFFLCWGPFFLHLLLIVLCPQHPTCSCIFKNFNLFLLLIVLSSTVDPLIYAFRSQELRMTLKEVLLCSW
Experimental: (§1) Following stimulation, streptavidin donor beads (0.5 μg) and biotinylated-cAMP (0.62 μmol) were added to the wells in a green light environment with 10 μL of lysis buffer (5 mM HEPES, 0.3% Tween-20, 0.1% BSA, pH=7.4) and the plates were incubated in the dark at room temperature for an additional 2 h. Plates were read on a Enspire (PerkinElmer) Alpha-plate reader using a pre-normalized assay protocol (set by the manufacturer).

[3] = target: T1, mMC1R; details: for mMC1R agonist activity: up to 100 μM
Experimental: as §1

[4] = target: T2, mMC3R (Mus musculus, UniProt P33033); test: cAMP AlphaScreen antagonist assay at mMC3R, NDP-MSH as agonist, HEK293 cells; details: for mMC3R antagonist pA2: NDP-MSH as agonist, HEK293 cells stably expressing mMC3R; for mMC3R antagonist activity: at the concentrations assayed
T2 sequence (P33033 whole entry): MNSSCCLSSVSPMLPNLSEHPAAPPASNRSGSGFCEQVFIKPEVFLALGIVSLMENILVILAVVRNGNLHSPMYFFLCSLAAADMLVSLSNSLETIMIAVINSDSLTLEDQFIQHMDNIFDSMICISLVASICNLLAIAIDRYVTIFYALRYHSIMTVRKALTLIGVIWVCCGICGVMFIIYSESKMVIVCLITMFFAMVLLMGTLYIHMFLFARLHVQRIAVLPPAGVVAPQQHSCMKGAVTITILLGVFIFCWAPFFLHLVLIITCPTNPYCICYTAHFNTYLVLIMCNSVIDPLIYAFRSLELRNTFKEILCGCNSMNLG

[5] = target: T3, mMC5R (Mus musculus, UniProt P41149); parameters: expressed in transfected cells; host or cells: HEK293; details: Doering 2017; cited from earlier work
T3 sequence (P41149 whole entry): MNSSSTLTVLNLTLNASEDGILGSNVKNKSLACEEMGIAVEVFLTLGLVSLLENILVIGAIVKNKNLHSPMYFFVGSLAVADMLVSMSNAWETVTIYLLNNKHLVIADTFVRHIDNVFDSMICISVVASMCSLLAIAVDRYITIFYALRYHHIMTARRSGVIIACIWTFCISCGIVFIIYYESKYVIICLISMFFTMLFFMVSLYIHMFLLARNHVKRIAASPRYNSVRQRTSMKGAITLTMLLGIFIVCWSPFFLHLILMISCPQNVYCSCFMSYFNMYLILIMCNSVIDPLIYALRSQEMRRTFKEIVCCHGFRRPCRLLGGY

[6] = target: T2, mMC3R; parameters: expressed in transfected cells; host or cells: HEK293; details: Doering 2017; cited from earlier work
[7] = target: T4, mMC4R (Mus musculus, UniProt P56450); parameters: expressed in transfected cells; host or cells: HEK293; details: cited from earlier work
T4 sequence (P56450 whole entry): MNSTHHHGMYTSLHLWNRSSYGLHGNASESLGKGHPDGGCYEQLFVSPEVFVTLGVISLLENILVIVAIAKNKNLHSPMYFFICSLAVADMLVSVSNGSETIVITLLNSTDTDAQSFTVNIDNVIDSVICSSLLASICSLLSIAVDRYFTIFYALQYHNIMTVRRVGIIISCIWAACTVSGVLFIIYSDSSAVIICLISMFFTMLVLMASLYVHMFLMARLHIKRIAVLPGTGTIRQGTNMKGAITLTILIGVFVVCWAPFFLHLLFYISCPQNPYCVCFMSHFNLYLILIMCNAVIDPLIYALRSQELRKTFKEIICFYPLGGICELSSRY

[8] = target: T4, mMC4R; test: cAMP AlphaScreen antagonist assay at mMC4R, NDP-MSH as agonist, HEK293 cells; details: for mMC4R antagonist pA2: NDP-MSH as agonist, HEK293 cells stably expressing mMC4R
Experimental: as §1

[9] = target: T4, mMC4R; parameters: expressed in transfected cells; host or cells: HEK293; details: Doering 2017; cited from earlier work
[10] = target: T2, mMC3R; parameters: expressed in transfected cells; host or cells: HEK293; details: Doering 2017; cited from earlier work; remark: listed apart in the source
[11] = target: T3, mMC5R; test: cAMP AlphaScreen agonist assay at mMC5R, HEK293 cells; details: for mMC5R agonist activity: up to 100 μM
Experimental: as §1

[12] = target: T2, mMC3R; test: cAMP AlphaScreen agonist assay at mMC3R, HEK293 cells; details: up to 100 μM
Experimental: as §1

[13] = target: T4, mMC4R; test: cAMP AlphaScreen agonist assay at mMC4R, HEK293 cells; details: for mMC4R agonist activity: up to 100 μM
Experimental: as §1

[14] = target: T5, MC4R (Homo sapiens, UniProt P32245); details: Nozawa 2007; cited from earlier work
Target sequence in this assay (P32245 whole entry): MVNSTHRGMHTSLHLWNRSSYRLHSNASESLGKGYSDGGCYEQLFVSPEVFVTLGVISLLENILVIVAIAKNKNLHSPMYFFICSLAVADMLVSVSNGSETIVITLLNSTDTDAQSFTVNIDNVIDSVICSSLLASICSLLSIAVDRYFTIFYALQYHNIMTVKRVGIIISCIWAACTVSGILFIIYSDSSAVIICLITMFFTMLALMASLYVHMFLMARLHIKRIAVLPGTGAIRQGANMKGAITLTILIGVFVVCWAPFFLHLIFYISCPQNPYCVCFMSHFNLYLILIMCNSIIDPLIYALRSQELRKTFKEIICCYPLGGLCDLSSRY

[15] = target: T6, MC1R (Homo sapiens, UniProt Q01726); details: unable to displace at up to this concentration; Chaki 2003; read-out: displacement of radiolabeled NDP-MSH at hMC1R; cited from earlier work
Target sequence in this assay (Q01726 whole entry): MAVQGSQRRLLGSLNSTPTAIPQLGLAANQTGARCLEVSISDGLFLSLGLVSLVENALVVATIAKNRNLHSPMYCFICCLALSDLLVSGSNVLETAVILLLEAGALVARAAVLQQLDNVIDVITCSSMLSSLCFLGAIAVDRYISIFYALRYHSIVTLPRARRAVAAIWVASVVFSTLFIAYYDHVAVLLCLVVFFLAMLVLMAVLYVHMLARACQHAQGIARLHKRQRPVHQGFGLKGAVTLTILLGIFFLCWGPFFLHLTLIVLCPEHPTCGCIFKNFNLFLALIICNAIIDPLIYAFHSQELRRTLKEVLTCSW

[16] = target: T7, MC3R (Homo sapiens, UniProt P41968); details: Chaki 2003; read-out: binding affinity at hMC3R; cited from earlier work
Target sequence in this assay (P41968 whole entry): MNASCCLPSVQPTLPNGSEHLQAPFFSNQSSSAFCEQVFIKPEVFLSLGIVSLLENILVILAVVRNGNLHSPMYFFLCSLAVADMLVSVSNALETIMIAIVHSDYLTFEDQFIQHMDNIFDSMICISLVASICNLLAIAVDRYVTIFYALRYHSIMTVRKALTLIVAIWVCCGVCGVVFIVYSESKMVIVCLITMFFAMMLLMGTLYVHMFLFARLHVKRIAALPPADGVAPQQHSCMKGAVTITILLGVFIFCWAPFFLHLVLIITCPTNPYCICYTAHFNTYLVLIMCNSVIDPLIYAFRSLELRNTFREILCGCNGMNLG

[17] = target: human (h)MC4R (Homo sapiens, UniProt P32245); details: Chaki 2003; read-out: binding affinity at hMC4R; cited from earlier work
Chain of human (h)MC4R (P32245 whole entry): as the sequence (P32245 whole entry) above

[18] = target: T5, MC4R; details: at 2 μM; cited from earlier work
Target sequence in this assay (P32245 whole entry, species assumed): as the sequence (P32245 whole entry) above

[19] = target: T7, MC3R; details: unable to displace at up to this concentration; read-out: displacement of NDP-MSH at the MC3R; cited from earlier work
Target sequence in this assay (P41968 whole entry, species assumed): as the sequence (P41968 whole entry) above

[20] = target: T6, MC1R; details: at 2 μM; cited from earlier work
Target sequence in this assay (Q01726 whole entry, species assumed): as the sequence (Q01726 whole entry) above

[21] = target: T8, MC5R (Homo sapiens, UniProt P33032); details: Bednarek, cited from earlier work
T8 sequence (P33032 whole entry, species assumed): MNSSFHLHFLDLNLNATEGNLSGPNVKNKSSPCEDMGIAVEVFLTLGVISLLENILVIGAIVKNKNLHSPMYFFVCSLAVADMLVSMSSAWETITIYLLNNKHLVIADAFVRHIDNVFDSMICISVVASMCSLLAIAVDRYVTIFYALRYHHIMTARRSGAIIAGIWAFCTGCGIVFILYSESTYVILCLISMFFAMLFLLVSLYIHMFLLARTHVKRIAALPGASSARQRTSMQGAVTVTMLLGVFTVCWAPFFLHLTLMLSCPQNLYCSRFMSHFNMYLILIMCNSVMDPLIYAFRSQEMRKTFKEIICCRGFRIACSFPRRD

[22] = target: T6, MC1R; details: unable to displace at up to this concentration; read-out: displacement of NDP-MSH at the MC1R; cited from earlier work
Target sequence in this assay (Q01726 whole entry, species assumed): as the sequence (Q01726 whole entry) above

[23] = target: T7, MC3R; details: at 2 μM; cited from earlier work
Target sequence in this assay (P41968 whole entry, species assumed): as the sequence (P41968 whole entry) above

[24] = target: T8, MC5R; details: Bednarek, cited from earlier work; remark: listed apart in the source
[25] = target: T5, MC4R; details: unable to displace at up to this concentration; read-out: displacement of NDP-MSH at the MC4R; cited from earlier work
Target sequence in this assay (P32245 whole entry, species assumed): as the sequence (P32245 whole entry) above

[26] = target: T7, MC3R; details: Grieco 2002; cited from earlier work
Target sequence in this assay (P41968 whole entry): as the sequence (P41968 whole entry) above

[27] = target: T5, MC4R; details: Grieco 2002; cited from earlier work
Target sequence in this assay (P32245 whole entry): as the sequence (P32245 whole entry) above

Compound: CC(=O)N[C@H](Cc1ccc2ccccc2c1)C(=O)N[C@H](Cc1ccc2ccccc2c1)C(=O)N[C@H](Cc1ccc2ccccc2c1)C(=O)N[C@H](Cc1ccc2ccccc2c1)C(N)=O [Ac-DNal(2′)-DNal(2′)-DNal(2′)-DNal(2′)-NH2] (Ac-[d2Nal][d2Nal][d2Nal][d2Nal]-NH2)
solubility in solvents compatible with RP-HPLC [1]: insoluble

Compound: CC(=O)N[C@H](Cc1ccc2ccccc2c1)C(=O)N[C@@H](CCCNC(=N)N)C(=O)N[C@H](Cc1ccc2ccccc2c1)C(=O)N[C@H](CCCCN)C(N)=O [compound 13, Ac-DNal(2′)-Arg-DNal(2′)-DLys-NH2] (Ac-[d2Nal]R[d2Nal][dK]-NH2)
EC50 [2]: 400 to 7900 nM

Compound: CC(=O)N[C@H](Cc1ccc2ccccc2c1)C(=O)N[C@@H](CCCNC(=N)N)C(=O)N[C@H](Cc1ccc2ccccc2c1)C(=O)N[C@H](Cc1ccc2ccccc2c1)C(N)=O [compound 14] (Ac-[d2Nal]R[d2Nal][d2Nal]-NH2)
EC50 [2]: 400 to 7900 nM

Compound: CC(=O)N[C@H](Cc1ccc2ccccc2c1)C(=O)N[C@@H](CCCNC(=N)N)C(=O)N[C@H](Cc1ccc2ccccc2c1)C(=O)N[C@@H](CCCNC(=N)N)C(N)=O [compound 15, Ac-DNal(2′)-Arg-DNal(2′)-Arg-NH2] (Ac-[d2Nal]R[d2Nal]R-NH2)
EC50 [2]: 400 to 7900 nM

Compound: CC(=O)N[C@H](Cc1ccc2ccccc2c1)C(=O)N[C@@H](CCCNC(=N)N)C(=O)N[C@H](Cc1ccc(I)cc1)C(=O)N[C@H](Cc1ccc2ccccc2c1)C(N)=O [compound 20] (Ac-[d2Nal]R[dPhe(4-I)][d2Nal]-NH2)
EC50 ([3]; read-out: mMC1R agonist EC50): 5000 nM | mMC1R agonist activity [3]: full agonist activity | mMC3R antagonist pA2 [4]: 6.1 | mMC5R partial agonist efficacy, % of the maximal NDP-MSH signal, previously reported [5]: 43% | mMC3R partial agonist efficacy, % of the maximal NDP-MSH signal, previously reported [6]: 40% | mMC4R partial agonist efficacy, % of the maximal NDP-MSH signal, previously reported ([7]; Doering 2017): 37% | mMC4R antagonist pA2 [8]: 6.5 | mMC4R antagonist pA2, previously reported [9]: 5.9 | mMC3R antagonist pA2, previously reported [10]: 5.6

Compound: CC(=O)N[C@H](Cc1ccc2ccccc2c1)C(=O)N[C@@H](CCCNC(=N)N)C(=O)N[C@@H](Cc1ccc2ccccc2c1)C(=O)N[C@H](CCCCN)C(N)=O [compound 22, Ac-DNal(2′)-Arg-Nal(2′)-DLys-NH2] (Ac-[d2Nal]R[2Nal][dK]-NH2)
EC50 [2]: 400 to 7900 nM | mMC4R antagonist pA2 [8]: 7.8

mMC1R agonist activity [3]: partially stimulate | mMC3R antagonist activity [4]: did not act as antagonists | EC50 [11]: 30 to 800 nM | EC50 ([11]; read-out: mMC5R agonist EC50): 130 nM | mMC5R agonist activity [11]: full mMC5R agonists | mMC3R agonist activity [12]: inactive | mMC4R agonist activity [13]: inactive
Compound: CC(=O)N[C@H](Cc1ccc(I)cc1)C(=O)N[C@H](Cc1ccc2ccccc2c1)C(=O)N[C@H](Cc1ccc(I)cc1)C(=O)N[C@@H](CCCNC(=N)N)C(N)=O [compound 33, Ac-DPhe(pI)-DNal(2′)-DPhe(pI)-Arg-NH2] (Ac-[dPhe(4-I)][d2Nal][dPhe(4-I)]R-NH2)

Compound: CC(=O)N[C@H](Cc1ccc(I)cc1)C(=O)N[C@H](Cc1ccc2ccccc2c1)C(=O)N[C@@H](Cc1ccc2ccccc2c1)C(=O)N[C@@H](CCCNC(=N)N)C(N)=O [compound 36, Ac-DPhe(pI)-DNal(2′)-Nal(2′)-Arg-NH2] (Ac-[dPhe(4-I)][d2Nal][2Nal]R-NH2)
mMC3R antagonist activity [4]: did not act as antagonists | EC50 [11]: 30 to 800 nM | mMC5R agonist activity [11]: full mMC5R agonists | mMC4R antagonist pA2 [8]: 5.8

Compound: Ac-DNal(2′)-Arg-DNal(2′)
IC50 [14]: 36.5 nM

mMC1R agonist activity [3]: full agonist activity
Compound: Ac-DNal(2′)-Arg-DPhe(pI)-Arg-NH2 [compound 21]

mMC1R agonist activity [3]: full agonist activity
Compound: Ac-DNal(2′)-Arg-DPhe(pI)-DLys-NH2 [compound 19]

Compound: Ac-DNal(2′)-Arg-Nal(2′) [MCL0020]
IC50 [14]: 15.4 nM | IC50 [15]: > 10000 nM | IC50 [16]: 1120 nM | IC50 [17]: 11.6 nM

mMC1R agonist activity [3]: full agonist activity
Compound: Ac-DPhe(pI)-Arg-DPhe(pI)-Arg-NH2 [compound 45]

mMC1R agonist activity [3]: full agonist activity
Compound: Ac-DPhe(pI)-Arg-DPhe(pI)-DLys-NH2 [compound 43]

Compound: Ac-His-DPhe-Arg-Trp-NH2 [reference compound]
agonist potency at the mMC4R ([7]; Haskell-Luevano 2001): nanomolar

Compound: Ac-Nle-c[Asp-Oic-DBip-Pip-Trp-Lys]-NH2
activation of the MC4R [18]: up to 40% | IC50 [19]: > 5000 nM | activation of the MC1R [20]: up to 40% | IC50 ([21]; J. Med. Chem. 2007, read-out: concentration displacing radiolabeled NDP-MSH at the MC5R): 0.95 nM | IC50 [22]: > 5000 nM | activation of the MC3R [23]: up to 40% | EC50 ([24]; J. Med. Chem. 2007, read-out: concentration activating the MC5R): 0.99 nM | IC50 [25]: > 5000 nM

Compound: Ac-Nle-c[Asp-Pro-DNal(2′)-Arg-Trp-Lys]-NH2 [PG901]
hMC3R antagonist pA2 [26]: 9.0 | hMC4R antagonist pA2 [27]: 9.3

Compound: Ac-Oic-DBip-Pip-Trp-NH2
EC50 ([24]; Peptides 2007, read-out: agonist potency at the MC5R): 1200 nM

mMC1R agonist activity [3]: partially stimulate | mMC5R agonist activity [11]: did not possess agonist activity | mMC3R agonist activity [12]: inactive | mMC4R agonist activity [13]: inactive
Compound: Ac-Phe(pI)-Nal(2′)-Phe(pI)-Arg-NH2 [compound 49]

Compound: Ac-Ser-Tyr-Ser-Nle-Glu-Oic-DBip-Pip-Trp-Gly-Lys-Pro-Val-NH2 (Ac-SYS[Nle]E[Oic][dBip][Pip′]WGKPV-NH2; reading uncertain; also: printed as Ac-Ser-Tyr-Ser-Nle-Glu-Oic-DBip-Pip-Trp-Gly-Lys-Pro-Val-NH2)
selectivity for the MC5R by radiolabeled 125I-NDP-MSH displacement ([21]; Peptides 2007): greater than 3200 fold | MC5R agonist potency ([24]; Peptides 2007): sub-nanomolar

mMC3R antagonist pA2 [4]: 7.8 | mMC4R partial activation, % of the maximal NDP-MSH signal ([13]; 100 μM): 25% | MC4R antagonist potency compared to endogenous AGRP(86-132) [8]: about equipotent | mMC4R antagonist pA2 [8]: 9.0
Compound: Ac-[dPhe(4-I)]R[2Nal]R-NH2 [compound 48]
